Patent US20170239351A1, “Therapeutic Combinations of a BTK Inhibitor, a PI3K Inhibitor, a JAK-2 Inhibitor, a PD-1 Inhibitor, and/or a PD-L1 Inhibitor” (Acerta Pharma B.V., priority 2014, published 2017)
One block for each molecule: values may come before it.

Assays:
B cell receptor = assay: Whole blood B cell receptor signalling assay (anti-IgD, CD69 on CD19+ B cells); assay type: cell-based; settings: 2 h incubation, anti-human IgD 18 h
Experimental: Blood from four healthy donors was incubated for 2 hours with the compounds shown over a concentration range, and then stimulated with anti-human IgD [10 μg/mL] for 18 hours. The mean fluorescent intensity (MFI) of CD69 (and CD86, data not shown) on gated CD19+ B cells was measured by flow cytometry.

[1] = system: KPC derived mouse pancreatic cancer cells; assay: Orthotopic pancreatic cancer model (KPC-derived cells); assay type: in vivo, C57BL/6 mice; settings: 15 mg/kg oral of each drug
Experimental: Orthotopic pancreatic cancer models in mice are clinically relevant, benefit from tissue site-specific pathology, and allow for study of metastasis. Qiu and Su, Methods Mol. Biol. 2013, 980, 215-223. A cell line derived from KrasG12D; Trp53R172H; Pdx1-Cre (KPC) mice was orthotopically implanted into the head of the pancreas after 35 passages. Based on the mice background from where the cell lines were generated, 1×10^6 cells were injected in C57BL/6 mice. Throughout the experiment, animals were provided with food and water ad libitum and subjected to a 12-h dark/light cycle. Animal studies were performed in accordance with the U.S. Public Health Service “Guidelines for the Care and Use of Laboratory Animals” (IACUC). After euthanization, pancreatic tumors were dissected out, weighed and single cell suspensions were prepared for flow cytometry analysis.
Results of the experiments are shown in FIG. 110, which illustrates tumor growth suppression in the orthotopic pancreatic cancer model. The statistical p-value (presumption against null hypothesis) is shown for each tested single active pharmaceutical ingredient and for the combination against the vehicle.
In this study, KrasG12D;Trp53R172H; Pdx1-Cre (KPC) derived mouse pancreatic cancer cells (10,000 cells) were injected into the pancreases of 24 female mice. After one week of expansion, drug treatment was started in mice developing pancreatic tumors.
Single cell suspensions from tumor samples were prepared as follows. Mouse tumor tissue was collected and stored in PBS/0.1% soybean trypsin inhibitor prior to enzymatic dissociation. […] Following surface staining, samples were acquired on a BD Fortessa and analyzed using FlowJo (Treestar) software.

NK cells = assay: Antibody-stimulated NK cell degranulation (CD107a), flow cytometry; assay type: cell-based, human; settings: DHL-4 target cells
CD8^+ T cells [2] = assay: CD8+ T cell viability (LIVE/DEAD staining, 4 days); assay type: cell-based
Experimental: Total T cells were plated on anti-TCR and anti-CD28 coated wells in the presence of both BTK inhibitors. Neutral culture conditions were used that will not polarize T cells to a helper lineage. The cells are grown for 4 days and are then stained with anti-CD4, anti-CD8 and LIVE/DEAD reagent to determine if the drugs have selective effects on either the CD4^+ or CD8^+ cells. Statistical significance was calculated using the Mann Whitney T-test. […]

[3] = system: regulatory T cell (Treg) development; assay: Regulatory T cell (Treg) development; assay type: cell-based
CD8^+ T cell = assay: CD8+ T cell viability; assay type: cell-based
CD4^+ T cells = assay: Th17 and Treg development from CD4+ T cells; assay type: cell-based
Experimental: Enriched CD4^+ T cells are plated on 24-well culture dishes that have been precoated 2 hr with 250 μL anti-TCRβ (0.5 μg/mL) plus anti-CD28 (5 μg/mL) at 37° C. in PBS. The cells are then supplemented with media containing BTK inhibitors along with the skewing cytokines as indicated in the following. The Th17 and Treg cultures are grown for 4 days before analysis. The cells are maintained for an additional 3 days with skewing cytokines (Th17; 20 ng/mL IL-6, 0.5 ng/mL TGF-β, 5 μg/mL IL-4, 5 μg/mL IFN-γ and Treg; 0.5 ng/mL TGF-β, 5 μg/mL IL-4, 5 μg/mL IFN-γ) and are supplemented with IL2 as a growth factor.

CD8^+ T cell function [4] = assay: Cytotoxicity assay for CD8+ T cell function; assay type: cell-based; settings: relative to vehicle
human platelets = assay: GPVI (convulxin-induced) platelet aggregation; assay type: cell-based
Experimental: GPVI platelet aggregation was measured for Formula (XVIII) and Formula (XX-A) (ibrutinib). Blood was obtained from untreated humans, and platelets were purified from […] by centrifugation. Cells were resuspended to a final concentration of 350,000/μL in buffer containing 145 mmol/L NaCl, 10 mmol/L HEPES, 0.5 mmol/L Na2HPO4, 5 mmol/L KCl, 2 mmol/L MgCl2, 1 mmol/L CaCl2, and 0.1% glucose, at pH 7.4. Stock solutions of Convulxin (CVX) GPVI were prepared on the day of experimentation and added to platelet suspensions 5 minutes (37° C., 1200 rpm) before the induction of aggregation. Aggregation was assessed with a Chronolog Lumi-Aggregometer (model 540 VS; Chronolog, Havertown, Pa.) and permitted to proceed for 6 minutes after the addition of agonist. The results are reported as maximum percent change in light transmittance from baseline with platelet buffer used as a reference.
In FIG. 129, the results of CVX-induced (250 ng/mL) human platelet aggregation results before and 15 minutes after administration of the BTK inhibitors to 6 healthy individuals are shown.

CD8^+ T cells [5] = assay: Cytotoxic T cell (CTL) assay; assay type: cell-based; settings: 500 nM
Experimental: Without being bound by any theory, CD8^+ T cells have two primary effector functions: (1) produce large amounts of IFN-γ (which activates macrophages), and (2) cytolytic activity. […] The targets were B lymphoblasts from lipopolysaccharide (LPS) treated cultures. The assay was performed by incubating different ratios of effectors:targets for 4 hours.

Raji cells [6] = assay: Rituximab ADCC assay (51Cr release), healthy donor NK cells; assay type: cell-based, human; settings: 1 μM
CD8^+ T cell function [7] = assay: IFN-γ level measurements for CD8+ T cell function; assay type: cell-based; settings: relative to vehicle
Raji cells [8] = assay: Antibody-dependent NK cell-mediated cytotoxicity, chromium release assay, Raji cells; assay type: cell-based; settings: 1 μM, rituximab, effector:target 25:1, 4 hours
T helper 17 (Th17) cells = assay: Effect on T helper 17 (Th17) cells; assay type: cell-based
[9] = system: human platelet-mediated thrombosis; set-up: species or system VWF HA1 mice (human platelets); settings: in vivo
Experimental: […]. Injury to the vessel wall of arterioles ([…] diameter) was performed using a pulsed nitrogen dye laser (440 nm, Photonic Instruments) applied through a 20× water-immersion Olympus objective (LUMPlanF1, 0.5 numerical aperature (NA)) of a Zeiss Axiotech vario microscope. Human platelet and wall interactions were visualized by fluorescence microscopy using a system equipped with a Yokogawa CSU-22 spinning disk confocal scanner, iXON EM camera, and 488 nm and 561 nm laser lines to detect BCECF-labeled and rhodamine-labeled platelets, respectively (Revolution XD, Andor Technology). The extent of thrombus formation was assessed for 2 minutes after injury and the area (μm^2) of coverage determined (Image IQ, Andor Technology).
. The BTK inhibitor-treated human platelets were fluorescently labeled and infused continuously through a catheter inserted into the femoral artery. Their behavior in response to laser-induced vascular injury was monitored in real time using two-channel confocal intravital microscopy (Furie and Furie, J. Clin. Invest. 2005, 115(12), 2255-62). Upon induction of arteriole injury untreated platelets rapidly formed thrombi with an average thrombus size of […] (mean±s.e.m.), as shown in FIG. 124 and FIG. 125. […]. […]. […]

relapsed/refractory CLL = settings: cited from earlier work

EC50 (B cell receptor): 121 nM
Molecule: C=CC(=O)Nc1cccc(Nc2nc(Nc3ccc(OCCOC)cc3)ncc2F)c1 [CC-292]

Molecule: C[C@H](Nc1ncnc2[nH]cnc12)c1cc2ccc(F)cc2nc1-c1ccccn1 [Formula (IX), (S)—N-(1-(7-fluoro-2-(pyridin-2-yl)quinolin-3-yl)ethyl)-9H-purin-6-amine, reference compound]
tumor volume versus vehicle [1]: statistically significant reductions in tumor volume

Molecule: C=CC(=O)N1CCC[C@@H](n2nc(-c3ccc(Oc4ccccc4)cc3)c3c(N)ncnc32)C1 [ibrutinib, 1-[(3R)-3-[4-amino-3-(4-phenoxyphenyl)-1H-pyrazolo[3,4-d]pyrimidin-1-yl]piperidin-1-yl]prop-2-en-1-one, reference compound]
inhibition of rituximab-stimulated NK cell degranulation (NK cells): ~50%
effect on CD8^+ T cell viability (CD8^+ T cells [2]): strong, negative effect on CD8^+ T cell viability
effect on Treg development [3]: strongly increases Treg development
effect on CD8+ T cell viability (CD8^+ T cell): strongly affects CD8^+ T cell viability at higher doses
effect on Th17 and Treg development (CD4^+ T cells): profound inhibition of Th17 cells and an increase in Treg development
CD8+ T cell function as measured by % cytotoxicity (CD8^+ T cell function [4]): affects CD8^+ T cell function
GPVI platelet aggregation (human platelets): significantly inhibits GPVI platelet aggregation
CD8^+ T cell function as % cytotoxicity (CD8^+ T cells [5]): affects CD8^+ T cell function
CD8^+ T cell function as IFN-γ levels (CD8^+ T cells [5]): significant loss of function
effect on rituximab-mediated ADCC (Raji cells [6]): strongly inhibited
CD8+ T cell function as measured by IFN-γ level (CD8^+ T cell function [7]): affects CD8^+ T cell function
antibody-dependent NK cell-mediated cytotoxicity (percent lysis of tumor cells) (Raji cells [8]): antagonizes antibody-dependent NK cell-mediated cytotoxicity
effect on Th17 cells (T helper 17 (Th17) cells): strongly inhibits Th17 cells
effect on thrombus formation [9]: interfere with thrombus formation

Molecule: obinutuzumab: type II glycoengineered CD20 monoclonal antibody
Grade 3 IRRs (relapsed/refractory CLL; Phase 1 portion (n=13)): 15%
patients who experienced IRRs (relapsed/refractory CLL; Phase 1 portion (n=13)): all patients
IRR cases developing symptoms of hypotension (relapsed/refractory CLL; Phase 2 portion): 60%
hypotension cases that were Grade 3 reactions (relapsed/refractory CLL; Phase 2 portion): 25%
patients who developed IRR (relapsed/refractory CLL; Phase 2 portion): 95%
response rate (relapsed/refractory CLL; monotherapy, Phase 1, previously treated CLL): 62%
